From patent US4965262A, “Method for treating or preventing locally periodontal disease” (Rohto Pharmaceutical Co., Ltd., priority 1987, dated 1990)
Like-named read-outs stand apart in the source and are kept apart here.

Experiments:
monkeys = conditions: cited from earlier work
[1] = cited from earlier work; for average concentration of ofloxacin in saliva: oral, 200 mg/body, 8 subjects
dogs = conditions: cited from earlier work
[2] = Concentration of ofloxacin in periodontal fluid in the pockets after local administration; type: in vivo, volunteers
Protocol: The preparations of Example 3 containing ofloxacin to be inserted into the periodontal pockets were locally administered to the pockets of volunteers and the concentration of ofloxacin in the periodontal fluid in the pockets was determined and compared with that in saliva obtained by oral administration thereof. In the test, the preparations of Example 3 having a thickness of 0.3 mm and width of 1 mm was cut into strips having a length of 4 mm (each containing 0.06 mg of ofloxacin). The strip was inserted into a periodontal pocket of each volunteer. The probing depth of the pocket was 5 mm. After a given time, a filter paper having a width of 1 mm was inserted into the pocket to take the periodontal fluid out of the pocket. The amount of ofloxacin in the periodontal fluid was determined from the diameter of an inhibition circle according to an agar plate diffusion method with E. coli K 12. The quantity of the periodontal fluid thus taken out was determined from a calibration curve prepared from the quantity of a previously prepared liquid sample and the wetted area of the filter paper. The concentration of ofloxacin was thus determined. The time profile of the concentration of ofloxacin in saliva in the oral administration was taken from a report of Morihana et al. (Chemotherapy, 32: Sl, 1070, 1984).

CC1COc2c(N3CCN(C)CC3)c(F)cc3c(=O)c(C(=O)O)cn1c23 (stereo not drawn) [ofloxacin, 9-fluoro-2,3-dihydro-3-methyl-10-(4-methyl-1-piperazinyl)-7-oxo-7H-pyrido[1,2,3-de][1,4]benzoxazine-6-carboxylic acid]
Acute toxicity (LD50 in oral administration) (monkeys): 500 to 1,000 mg/kg | maximum concentration in saliva ([1]; oral administration of 200 mg, in 3 hours): 1.8 µg/mL | time of maximum concentration in saliva ([1]; oral administration of 200 mg): 3 h | average concentration of ofloxacin in saliva ([1]; 1 h): 1.18 µg/mL | average concentration of ofloxacin in saliva ([1]; 2 h): 1.59 µg/mL | average concentration of ofloxacin in saliva ([1]; 3 h): 1.80 µg/mL | average concentration of ofloxacin in saliva ([1]; 4 h): 1.65 µg/mL | average concentration of ofloxacin in saliva ([1]; 5 h): 1.40 µg/mL | Acute toxicity (LD50 in oral administration) (dogs): ≥ 200 mg/kg | time for which concentration in the pocket was maintained above 70 μg/ml ([2]; 0.06 mg inserted into the periodontal pocket): > 5 h | concentration at 5 h ([2]; human, periodontal fluid, 0.06 mg inserted into the periodontal pocket, for longer than 5 h, read-out: concentration in the pocket maintained): > 70000 ng/mL | concentration at 24 h ([2]; human, periodontal fluid, 0.06 mg/pocket, 24 h, 8 pockets of 4 subjects): 16600 ng/mL
